# Laboratory results as given in patent EP0738149B1 (priority 1994, dated 1995).
# What was measured:
# [1] = tested on: rats; assay: Electrically kindled rat model of epilepsy, p.o.; format: in vivo; conditions: po, read-out: ED50 (prevented seizures)
# Source text: The rat electrical kindling model of epilepsy has been known to show efficacy of antiepileptic agents against complex partial seizures that evolve into generalized motor seizures. In these tests, rats were electrically stimulated via corneal electrodes twice daily for approximately 5 days and then once daily for an additional 10 days. Once the seizure criteria, as described by R.J. Racine, et al., Electroenceph. Clin. Neurophysiol. 32: 281-294 (1972), were met, the test substance was administered p.o. to rats, and the rat electrically stimulated, and observed for the presence or absence of a seizure.
# [2] = tested on: rats; assay: Closed head injury in rats: brain oedema (water content), Experiments 4A-4E; format: in vivo; conditions: Exp 4A; relative to normal brain water content of 78.5 %
# Protocol: After the second evaluation of motor function, the animals were sacrificed and the brains were removed. A piece of tissue was weighed to yield a wet weight(WW), then dried in an oven for 24 hours at 95C and re-weighed to yield a dry weight(DW). Percentage water content in the tissue was calculated as (WW-DW)x100/WW.
# [3] = tested on: rats; assay: Closed head injury in rats: motor function (Neurological Severity Status), Experiments 4A-4E
# [4] = tested on: hypoxic rat; assay: α-MpT-induced hypokinesia in hypoxic rat (locomotor activity), Experiments 1A-1C; format: in vivo; conditions: Mean ± SEM
# Protocol: Experiment 1A. Wistar male rats, 15-19 month-old, were exposed to a single hypoxic episode which is assumed to decrease the level of dopamine in the brain. […] The drugs were administered by gavage, using a special syringe equipped with rounded tip that could be directed into the stomach. The dose was contained in 0.3-0.5 mL of distilled water. The rats were pretreated for 70-80 days with daily doses of the test drugs and received intra-peritoneal (i.p.) α-MpT (α-methyl-p-tyrosine) at a dose of 100mg/kg in 0.3-0.5 mL saline. Controls received saline. α-MpT is assumed to inhibit the formation of L-Dopa from tyrosine and, consequently the formation of dopamine itself. Lack of central dopamine is expressed as hypokinesia. Following the injection of α-MpT, motor activity was recorded for the duration of 10 hours. Locomotion scores were taken in seven fully-computerized cages (26x25cm) having a grid of infra-red beams at 4 cm-intervals. Crossing of a beam initiated an electric signal which was fed into a computer. The number of crossings over a given period provided a measure of locomotion. The records gave two data categories: (a) "small movements" originating in stationary activities such as grooming and scratching and (b) "big movements" originating in ambulation and recorded as the simultaneous crossing of more than two beams."Total movements" include both categories. Counts of motor activity in the presence of α-MpT were related as percent with respect to counts in its absence in the corresponding control group (unlesioned or hypoxia-lesioned). Motor activity counts of drug-treated rats were related to the hypoxia saline-treated as 100%. All behavioral tests were performed 90-120 min. after administration of the last dose of the test compound.
# Experiment 1B. […] The drugs were given i.p. • (3) Duration of the treatment: 21 days. • (4) Dose of α-MpT: 70 mg/Kg.
# [5] = Exp 4A, 0.1mg/kg i.p. at 0,4,8 and 12 hours post-trauma
# [6] = Exp 4B, 0.1mg/kg once a day for 14 days
# [7] = Exp 1A, 0.5mg/kg/Day gavage 70-80 days, α-MpT 100mg/kg i.p., Hour 1
# [8] = Exp 1A, 0.5mg/kg/Day gavage 70-80 days, α-MpT 100mg/kg i.p., Hour 2
# [9] = Exp 1A, 0.5mg/kg/Day gavage 70-80 days, α-MpT 100mg/kg i.p., Hour 3
# [10] = Exp 1A, 0.5mg/kg/Day gavage 70-80 days, α-MpT 100mg/kg i.p., Hour 4
# [11] = Exp 1A, 0.5mg/kg/Day gavage 70-80 days, α-MpT 100mg/kg i.p., Hour 5
# [12] = Exp 1A, 0.5mg/kg/Day gavage 70-80 days, α-MpT 100mg/kg i.p., Hour 7
# [13] = Exp 1A, 0.5mg/kg/Day gavage 70-80 days, α-MpT 100mg/kg i.p., Hour 8
# [14] = Exp 1A, 0.5mg/kg/Day gavage 70-80 days, α-MpT 100mg/kg i.p., Hour 9
# [15] = Exp 1A, 0.5mg/kg/Day gavage 70-80 days, α-MpT 100mg/kg i.p., Hour 10
# [16] = Exp 1B, 0.3 mg/Kg daily i.p. 21 days, α-MpT 70 mg/Kg, Hour 1
# [17] = Exp 1B, 0.3 mg/Kg daily i.p. 21 days, α-MpT 70 mg/Kg, Hour 2
# [18] = Exp 1B, 0.3 mg/Kg daily i.p. 21 days, α-MpT 70 mg/Kg, Hour 3
# [19] = Exp 1B, 0.3 mg/Kg daily i.p. 21 days, α-MpT 70 mg/Kg, Hour 4
# [20] = Exp 1B, 0.3 mg/Kg daily i.p. 21 days, α-MpT 70 mg/Kg, Hour 5
# [21] = Exp 1B, 0.3 mg/Kg daily i.p. 21 days, α-MpT 70 mg/Kg, Hour 6
# [22] = Exp 1B, 0.3 mg/Kg daily i.p. 21 days, α-MpT 70 mg/Kg, Hour 7
# [23] = Exp 1B, 0.3 mg/Kg daily i.p. 21 days, α-MpT 70 mg/Kg, Hour 8
# [24] = Exp 1B, 0.3 mg/Kg daily i.p. 21 days, α-MpT 70 mg/Kg, Hour 9
# [25] = Exp 1B, 0.3 mg/Kg daily i.p. 21 days, α-MpT 70 mg/Kg, Hour 10
smiles,measurement,setting,value
"CC(=O)N[C@@H]1CCc2ccccc21 [Example 18, (R)-N-Acetyl-1-aminoindan]",ED50,[1],24.6 mg/kg
"N[C@@H]1CCc2ccccc21 [R-AI, (R)-1-aminoindan]",reduction in trauma-induced oedema,[2],50%
same,NSS 1hr,[3]; [5],16.8
same,NSS 24hr,[3]; [5],8.3
same,ΔNSS,"[3]; Exp 4A, 0.1mg/kg i.p. at 0,4,8 and 12 hours post-trauma, change 1 hour to 24 hours",8.5±0.5
same,NSS at 1hr,[3]; [6],17.7±0.5
same,ΔNSS at 24hr,[3]; [6],7.3±0.8
same,ΔNSS at 48hr,[3]; [6],9.3±0.8
same,ΔNSS at 7d,[3]; [6],11.8±0.5
same,ΔNSS at 14d,[3]; [6],14.0±0.4
same,NSS 1hr,"[3]; Exp 4C, 0.03 mg/kg",16.3
same,NSS 24hr,"[3]; Exp 4C, 0.03 mg/kg",10.4
same,ΔNSS,"[3]; Exp 4C, 0.03 mg/kg",5.9±0.3
same,NSS 1hr,"[3]; Exp 4C, 0.1 mg/kg",16.2
same,NSS 24hr,"[3]; Exp 4C, 0.1 mg/kg",10.4
same,ΔNSS,"[3]; Exp 4C, 0.1 mg/kg",5.8±0.4
same,NSS 1hr,"[3]; Exp 4C, 0.3 mg/kg",16.6
same,NSS 24hr,"[3]; Exp 4C, 0.3 mg/kg",8.5
same,ΔNSS,"[3]; Exp 4C, 0.3 mg/kg",8.1±0.5
same,NSS 1hr,"[3]; Exp 4C, 1.0 mg/kg",16.8
same,NSS 24hr,"[3]; Exp 4C, 1.0 mg/kg",8.8
same,ΔNSS,"[3]; Exp 4C, 1.0 mg/kg",8.0±0.5
same,NSS 1hr,"[3]; Exp 4C, 3.0 mg/kg",16.4
same,NSS 24hr,"[3]; Exp 4C, 3.0 mg/kg",7.8
same,ΔNSS,"[3]; Exp 4C, 3.0 mg/kg",8.6±0.7
same,ΔNSS,"[3]; Exp 4D, 1mg/kg, times of administration 0",8.8±10.8
same,ΔNSS,"[3]; Exp 4D, 1mg/kg, times of administration 0 + 4h",8.0±1.0
same,ΔNSS,"[3]; Exp 4D, 1mg/kg, times of administration 0 + 8h",8.0±0.1
same,ΔNSS,"[3]; Exp 4D, 1mg/kg, times of administration 0 + 12h",8.7±0.6
same,ΔNSS,"[3]; Exp 4D, 1mg/kg, times of administration 0,4,8,12h",8.2±0.7
same,ΔNSS,"[3]; Exp 4E, 1mg/kg given + 1h post head trauma",8.4±0.6
same,ΔNSS,"[3]; Exp 4E, 1mg/kg given + 2h post head trauma",7.0±0.5
same,ΔNSS,"[3]; Exp 4E, 1mg/kg given + 3h post head trauma",7.4±0.5
C#CCN(C)[C@H](C)Cc1ccccc1 [deprenyl],"Locomotor activity after α-MpT treatment, recorded as big movements",[4]; [7],61 ± 15%
same,"Locomotor activity after α-MpT treatment, recorded as total movements",[4]; [7],88 ± 23%
same,"Locomotor activity after α-MpT treatment, recorded as big movements",[4]; [8],103 ± 22%
same,"Locomotor activity after α-MpT treatment, recorded as total movements",[4]; [8],131 ± 30%
same,"Locomotor activity after α-MpT treatment, recorded as big movements",[4]; [9],184 ± 39%
same,"Locomotor activity after α-MpT treatment, recorded as total movements",[4]; [9],141 ± 26%
same,"Locomotor activity after α-MpT treatment, recorded as big movements",[4]; [10],85 ± 34%
same,"Locomotor activity after α-MpT treatment, recorded as total movements",[4]; [10],191 ± 45%
same,"Locomotor activity after α-MpT treatment, recorded as big movements",[4]; [11],171 ± 61%
same,"Locomotor activity after α-MpT treatment, recorded as total movements",[4]; [11],229 ± 40%
same,"Locomotor activity after α-MpT treatment, recorded as big movements","[4]; Exp 1A, 0.5mg/kg/Day gavage 70-80 days, α-MpT 100mg/kg i.p., Hour 6",65 ± 17%
same,"Locomotor activity after α-MpT treatment, recorded as big movements",[4]; [12],96 ± 29%
same,"Locomotor activity after α-MpT treatment, recorded as total movements",[4]; [12],204 ± 7%
same,"Locomotor activity after α-MpT treatment, recorded as big movements",[4]; [13],91 ± 40%
same,"Locomotor activity after α-MpT treatment, recorded as total movements",[4]; [13],131 ± 23%
same,"Locomotor activity after α-MpT treatment, recorded as big movements",[4]; [14],84 ± 23%
same,"Locomotor activity after α-MpT treatment, recorded as total movements",[4]; [14],137 ± 21%
same,"Locomotor activity after α-MpT treatment, recorded as big movements",[4]; [15],29 ± 10%
same,"Locomotor activity after α-MpT treatment, recorded as total movements",[4]; [15],116 ± 22%
same,"Locomotor activity after α-MpT treatment, recorded as big movements",[4]; [16],70 ± 10%
same,"Locomotor activity after α-MpT treatment, recorded as total movements",[4]; [16],68 ± 9%
same,"Locomotor activity after α-MpT treatment, recorded as big movements",[4]; [17],91 ± 19%
same,"Locomotor activity after α-MpT treatment, recorded as total movements",[4]; [17],95 ± 11%
same,"Locomotor activity after α-MpT treatment, recorded as big movements",[4]; [18],85 ± 19%
same,"Locomotor activity after α-MpT treatment, recorded as total movements",[4]; [18],126 ± 22%
same,"Locomotor activity after α-MpT treatment, recorded as big movements",[4]; [19],88 ± 23%
same,"Locomotor activity after α-MpT treatment, recorded as total movements",[4]; [19],118 ± 20%
same,"Locomotor activity after α-MpT treatment, recorded as big movements",[4]; [20],87 ± 11%
same,"Locomotor activity after α-MpT treatment, recorded as total movements",[4]; [20],83 ± 24%
same,"Locomotor activity after α-MpT treatment, recorded as big movements",[4]; [21],67 ± 8%
same,"Locomotor activity after α-MpT treatment, recorded as total movements",[4]; [21],78 ± 9%
same,"Locomotor activity after α-MpT treatment, recorded as big movements",[4]; [22],62 ± 9%
same,"Locomotor activity after α-MpT treatment, recorded as total movements",[4]; [22],56 ± 7%
same,"Locomotor activity after α-MpT treatment, recorded as big movements",[4]; [23],70 ± 9%
same,"Locomotor activity after α-MpT treatment, recorded as total movements",[4]; [23],85 ± 13%
same,"Locomotor activity after α-MpT treatment, recorded as big movements",[4]; [24],132 ± 24%
same,"Locomotor activity after α-MpT treatment, recorded as total movements",[4]; [24],111 ± 12%
same,"Locomotor activity after α-MpT treatment, recorded as big movements",[4]; [25],54 ± 13%
same,"Locomotor activity after α-MpT treatment, recorded as total movements",[4]; [25],61 ± 12%
